Test results: patent US10912803B2, “Probiotic and polyphenol against neurodegeneration” (NESTEC S.A., priority 2012, dated 2021)

Key:
[1] = molecular target: T1, size exclusion purified protofibrillar mixture of Aβ42 (PF) (Homo sapiens, UniProt P05067); assay: Assay 2: Targeting protofibrillar Aβ assay, ThT fluorescence; assay type: biochemical; conditions: for PF (effects of compounds compared to control without compounds) - signal intensity: 37° C; for Inhibition of Aβ fibrillization: PF, ratio and time not stated
T1 construct: size exclusion purified protofibrillar mixture of Aβ42 (PF)
T1 sequence (P05067 672-713 limits assumed): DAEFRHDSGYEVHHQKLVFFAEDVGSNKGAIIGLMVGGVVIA
Experimental: Assay 2: Targeting Protofibrillar Aβ Assay (Timeframe 24-48 Hrs) (See FIGS. 1 and 2A-2D):
In this assay it was started with a size exclusion purified protofibrillar mixture of Aβ42 (PF). This was incubated with the compound of interest (C) at 37° C. The extent of aggregation was then assessed at 24 and 48 hrs by Thioflavin T (ThT) fluorescence. […] This could occur via at least two mechanisms; i) blocking protofibrils to fibril transition or ii) inducing the dissociation/disaggregation of protofibrils.
(§1) Aβ42 LMW and PF were used at a final concentration of […] and incubated alone or with the compounds at a ratio of 1:0.5 or 1:2.

[2] = molecular target: T2, size exclusion purified monomeric Aβ42 (LMW) (Homo sapiens, UniProt P05067); assay: Assay 1: Targeting monomeric Aβ assay, ThT fluorescence; assay type: biochemical; conditions: for LMW (effects of compounds compared to control without compounds) - signal intensity: 37° C; for Inhibition of Aβ fibrillization: LMW, ratio and time not stated
T2 construct: size exclusion purified monomeric Aβ42 (LMW)
T2 sequence (P05067 672-713 limits assumed): as above
Experimental: Assay 1: Targeting Monomeric Aβ Assay (Timeframe 24-48 Hrs) (See FIG. 1):
In this assay, it was started with size exclusion purified monomeric Aβ42 (LMW). This was incubated with a compound of interest (C) at 37° C. The extent of aggregation was then assessed at 24 and 48 hrs by Thioflavin T (ThT) fluorescence. […] However, it is difficult to infer from this assay alone at which point along the amyloid formation pathway the compound acts, i.e., does interfere with monomer to protofibrils transition or block protofibrils to fibril transition.
as §1

[3] = 24 h, ratio Aβ42:compound 1:0.5, Aβ42 10 pM

Compound | PF (effects of compounds compared to control without compounds) - signal intensity ([1]; 24 h, ratio 1:0.5, Aβ42 10 pM) | PF (effects of compounds compared to control without compounds) - signal intensity ([1]; 24 h, ratio 1:2, Aβ42 10 pM) | PF (effects of compounds compared to control without compounds) - signal intensity ([1]; 48 h, ratio 1:0.5, Aβ42 10 pM) | PF (effects of compounds compared to control without compounds) - signal intensity ([1]; 48 h, ratio 1:2, Aβ42 10 pM) | Inhibition of Aβ fibrillization [1] [%] | LMW (effects of compounds compared to control without compounds) - signal intensity ([2]; 24 h, ratio 1:2, Aβ42 10 pM) | LMW (effects of compounds compared to control without compounds) - signal intensity [2, 3] | LMW (effects of compounds compared to control without compounds) - signal intensity ([2]; 48 h, ratio 1:0.5, Aβ42 10 pM) | LMW (effects of compounds compared to control without compounds) - signal intensity ([2]; 48 h, ratio 1:2, Aβ42 10 pM) | Inhibition of Aβ fibrillization [2] [%]
O=C(/C=C/c1ccc(O)c(O)c1)O[C@@H](C(=O)O)[C@@H](O)C(=O)O [NP7, Caftaric acid] | Decrease | Decrease | Decrease | Decrease | 35 | Decrease | Decrease | Decrease | Decrease | 42
Chicoric acid [NP5] | Decrease | Decrease | Decrease | Decrease | 41 | Decrease | Decrease | Decrease | Decrease | 50
